# Measured values: PubChem BioAssay (NCI)
#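 Exposure lasted 48 hours, with cells grown in 96-well plates and compounds tested at five concentrations. Definition used: TGI = concentration required for complete inhibition of growth.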
# Key:
# Test in all cases: NCI tumour cell line growth inhibition, 48 h
# [1] = test system: 786-0 renal
# [2] = test system: A498 renal
# [3] = test system: A549 NSCLC
# [4] = test system: ACHN renal
# [5] = test system: BT-549 breast
# [6] = test system: CAKI-1 renal
# [7] = test system: CCRF-CEM leukemia
# [8] = test system: COLO 205 colon
# [9] = test system: DU-145 prostate
# [10] = test system: EKVX NSCLC
# [11] = test system: HCC-2998 colon
# [12] = test system: HCT-116 colon
# [13] = test system: HCT-15 colon
# [14] = test system: HL-60(TB) leukemia
# [15] = test system: HOP-62 NSCLC
# [16] = test system: HOP-92 NSCLC
# [17] = test system: HS 578T breast
# [18] = test system: HT29 colon
# [19] = test system: IGROV1 ovarian
# [20] = test system: K-562 leukemia
# [21] = test system: KM12 colon
# [22] = test system: LOX IMVI melanoma
# [23] = test system: M14 melanoma
# [24] = test system: MALME-3M melanoma
# [25] = test system: MCF7 breast
# [26] = test system: MDA-MB-435
# [27] = test system: MDA-N
# [28] = test system: MOLT-4 leukemia
# [29] = test system: NCI-H226 lung
# [30] = test system: NCI-H23 lung
# [31] = test system: NCI-H460 lung
# [32] = test system: NCI-H522 lung
# [33] = test system: NCI/ADR-RES ovarian
# [34] = test system: OVCAR-3 ovarian
# [35] = test system: OVCAR-4 ovarian
# [36] = test system: OVCAR-5 ovarian
# [37] = test system: OVCAR-8 ovarian
# [38] = test system: PC-3 prostate
# [39] = test system: RPMI-8226 leukemia
# [40] = test system: RXF 393 renal
# [41] = test system: SF-268 CNS
# [42] = test system: SF-295 CNS
# [43] = test system: SF-539 CNS
# [44] = test system: SK-MEL-2 melanoma
# [45] = test system: SK-MEL-28 melanoma
# [46] = test system: SK-MEL-5 melanoma
# [47] = test system: SK-OV-3 ovarian
# [48] = test system: SN12C renal
# [49] = test system: SNB-19 CNS
# [50] = test system: SNB-75 CNS
# [51] = test system: SR leukemia
# [52] = test system: SW-620 colon
# [53] = test system: T-47D breast
# [54] = test system: TK-10 renal
# [55] = test system: U251 CNS
# [56] = test system: UACC-257 melanoma
# [57] = test system: UACC-62 melanoma
# [58] = test system: UO-31 renal
smiles,measurement,setting,value
CCOC(=O)/C(=C\NCc1ccc2c(c1)OCO2)c1nc2ccccc2[nH]1,TGI,[1],> 100 µM
same,TGI,[2],> 100 µM
same,TGI,[3],> 100 µM
same,TGI,[4],> 100 µM
same,TGI,[5],> 100 µM
same,TGI,[6],> 100 µM
same,TGI,[7],> 100 µM
same,TGI,[8],> 100 µM
same,TGI,[9],> 100 µM
same,TGI,[10],> 100 µM
same,TGI,[11],> 100 µM
same,TGI,[12],> 100 µM
same,TGI,[13],> 100 µM
same,TGI,[14],> 100 µM
same,TGI,[15],> 100 µM
same,TGI,[16],> 100 µM
same,TGI,[17],> 100 µM
same,TGI,[18],> 100 µM
same,TGI,[19],> 100 µM
same,TGI,[20],> 100 µM
same,TGI,[21],> 100 µM
same,TGI,[22],> 100 µM
same,TGI,[23],> 100 µM
same,TGI,[24],> 100 µM
same,TGI,[25],> 100 µM
same,TGI,[26],> 100 µM
same,TGI,[27],> 100 µM
same,TGI,[28],> 100 µM
same,TGI,[29],> 100 µM
same,TGI,[30],> 100 µM
same,TGI,[31],> 100 µM
same,TGI,[32],> 100 µM
same,TGI,[33],> 100 µM
same,TGI,[34],> 100 µM
same,TGI,[35],> 100 µM
same,TGI,[36],> 100 µM
same,TGI,[37],> 100 µM
same,TGI,[38],> 100 µM
same,TGI,[39],> 100 µM
same,TGI,[40],> 100 µM
same,TGI,[41],> 100 µM
same,TGI,[42],> 100 µM
same,TGI,[43],> 100 µM
same,TGI,[44],> 100 µM
same,TGI,[45],> 100 µM
same,TGI,[46],> 100 µM
same,TGI,[47],> 100 µM
same,TGI,[48],> 100 µM
same,TGI,[49],> 100 µM
same,TGI,[50],> 100 µM
same,TGI,[51],> 100 µM
same,TGI,[52],> 100 µM
same,TGI,[53],> 100 µM
same,TGI,[54],60 µM
same,TGI,[55],> 100 µM
same,TGI,[56],> 100 µM
same,TGI,[57],> 100 µM
same,TGI,[58],> 100 µM
